In BindingDB's records for patent US11873292 (Shanghai Institute of Materia Medica, 2024):

What was measured:
[1] = target: Lysine-specific histone demethylase 1A (Homo sapiens, UniProt O60341); experiment: LSD1 in vitro activity assay
[2] = target: T1, Amine oxidase [flavin-containing] A (Homo sapiens, UniProt P21397); experiment: MAOA and MAOB In Vitro Activity Assay
T1 sequence (P21397 whole entry): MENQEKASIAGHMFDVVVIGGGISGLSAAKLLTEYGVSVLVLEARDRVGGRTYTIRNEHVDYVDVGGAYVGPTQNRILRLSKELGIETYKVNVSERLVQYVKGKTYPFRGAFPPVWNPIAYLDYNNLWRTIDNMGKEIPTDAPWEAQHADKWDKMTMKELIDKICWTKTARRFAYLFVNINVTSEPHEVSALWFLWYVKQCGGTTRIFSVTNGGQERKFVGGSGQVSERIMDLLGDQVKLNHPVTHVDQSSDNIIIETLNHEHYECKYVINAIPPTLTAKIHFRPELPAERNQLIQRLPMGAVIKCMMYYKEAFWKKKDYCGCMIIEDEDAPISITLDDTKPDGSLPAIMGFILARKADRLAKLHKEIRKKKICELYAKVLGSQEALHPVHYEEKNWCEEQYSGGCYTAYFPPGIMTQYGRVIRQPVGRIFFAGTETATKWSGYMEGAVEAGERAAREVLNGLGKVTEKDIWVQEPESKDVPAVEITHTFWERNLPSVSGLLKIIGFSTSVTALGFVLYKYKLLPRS

[3] = target: T2, Amine oxidase [flavin-containing] B (Homo sapiens, UniProt P27338); experiment: MAOA and MAOB In Vitro Activity Assay
T2 sequence (P27338 whole entry): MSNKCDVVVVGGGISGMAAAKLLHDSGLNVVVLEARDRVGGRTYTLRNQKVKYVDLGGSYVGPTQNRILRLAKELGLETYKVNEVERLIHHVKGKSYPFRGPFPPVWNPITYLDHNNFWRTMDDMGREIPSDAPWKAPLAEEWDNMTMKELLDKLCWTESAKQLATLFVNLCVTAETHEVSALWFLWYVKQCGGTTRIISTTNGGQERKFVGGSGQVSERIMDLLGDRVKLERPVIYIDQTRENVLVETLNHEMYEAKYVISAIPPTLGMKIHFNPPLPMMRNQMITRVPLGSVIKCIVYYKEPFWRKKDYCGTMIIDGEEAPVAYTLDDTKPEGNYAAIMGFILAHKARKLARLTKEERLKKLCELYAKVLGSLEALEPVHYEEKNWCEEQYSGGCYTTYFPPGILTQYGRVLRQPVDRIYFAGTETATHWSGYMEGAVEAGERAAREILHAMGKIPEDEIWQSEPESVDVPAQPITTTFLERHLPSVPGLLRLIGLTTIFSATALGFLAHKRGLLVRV

O=S(=O)(c1ccccc1)N1CCc2cc(C3CC3NCc3c[nH]c4ccccc34)ccc21 (trans isomer) [US11873292, Compound A8]
IC50 [1]: 85.1 nM
IC50 [2]: 81.7 µM
IC50 [3]: > 100 µM
